Source: patent publication US20260241013A1, “TARGETED PROTEIN DEGRADATION USING PRODRUGS OF BIFUNCTIONAL COMPOUNDS THAT BIND UBIQUITIN LIGASE AND A TARGET MCL-1 PROTEIN” (Captor Therapeutics S.A., priority 2022, published 2026)
Read-outs that look alike come from different tables or passages of the source.

How the values were obtained:
Type in all cases: cell-based
MV4-11 cells = experiment: Cell viability assay (CellTiter-Glo, CTG protocol), MV4-11; details: Homo sapiens, MV4-11 (MCL-1 dependent AML line), 24 hours incubation, 1% FBS, read-out: Average pCC50 by molecule MV4-11 (converted)
Excerpt: (§1) The effect of various compounds of the invention on the viability of MV4-11 and ARH-77 cell lines was investigated, using the CTG protocol described below.
(§2) MV4-11 cell lines are derived from acute myeloid leukaemia and it is described in the literature as a MCL-1 dependent cell line, as opposed to lymphoblast-like ARH-77 cell line, which is described as independent of MCL-1 (Tron A E et al. Nat Commun. 2018; 9: 5341; Caenepeel S et al. Cancer Discov. 2018 December; 8(12): 1582-1597).
(§3) Cells (MV4-11 or ARH-77) were seeded on […] in a growth medium with 1% FBS. Next, compound stocks were pre-diluted in DMSO and added directly to the cell culture media (final DMSO concentration: 0.5%). Compound concentrations used in this assay: 1/3 dilutions starting at 30 μM (9 to 12 points). After 24 hours of incubation, cell viability was evaluated using CellTiter-Gob® Luminescent Cell Viability Assay (Promega, cat #G7572). The luminescence signal was measured using a CLARIOstar Plus Multi-Mode Microplate Reader (574-590 nm).
(§4) Results were normalized to DMSO control. Collected data were analyzed using GraphPad Prism to calculate pCC50 values (i.e. the negative log of the CC50 value). CC50 (50% cytotoxic concentration) is the effective concentration of a cytotoxic compound, which produces 50% of the maximum possible cell death (i.e. the concentration of the compound which is required in order to reduce cell viability by 50%). CC50 is often used rather than IC50 in cell toxicity assays.

[1] = Cell viability assay (CellTiter-Glo, CTG protocol), ARH-77; details: human, ARH-77 cells (lymphoblast-like), ARH-77 (MCL-1 independent line), 24 hours incubation, 1% FBS, read-out: Average pCC50 by molecule ARH-77 (converted)
Excerpt: as §1, §2, §3, §4

MCL-1 protein = target: T1, MCL-1 protein (Homo sapiens, UniProt Q07820); experiment: MCL-1 protein degradation in MV4-11 cells, Western blot; details: 6 hours; for MCL-1 protein abundance: MV4-11, % of DMSO control; for MCL-1 protein degradation (Western blot, in words): MV4-11 cells
T1 construct: endogenous in cells; host or cells: MV4-11
Procedure: MV4-11 cells were maintained in IMDM medium, supplemented with penicillin/streptomycin and 10% Fetal Bovine Serum (FBS). MV4-11 cells were collected, centrifuged (250 rcf, 5 min), resuspended in a growth medium containing 10% FBS and counted. The cell suspension was then adjusted to 1×10^6 cells/ml using a growth medium containing 10% FBS. Afterwards, 0.5×10^6 cells were seeded on 24-well plates in 0.5 mL of medium per well. Immediately after seeding, cells were pre-treated for 30 minutes with DMSO or pan-caspase inhibitor—Q-VD-Oph. Next, compounds from stocks pre-diluted in DMSO were added directly to the cell culture medium in appropriate concentrations (the final DMSO concentration was 0.5%). Following the 6 hours treatment with the compounds, cells were collected from the plates and suspended in a lysis buffer (2% SDS, 50 mM Tris, pH 8.0, 100 U/ml Pierce Universal Nuclease for Cell Lysis, complete EDTA-free Protease Inhibitor Cocktail) and incubated on ice for 45 min. The amount of protein was determined via BCA assay, and an equal quantity of each sample was loaded on the precast gel for protein separation. After the antibody staining for MCL-1, α-tubulin, and cleaved forms of PARP and caspase 3, the membranes were washed and signals developed.
Densitometric values for MCL-1 were normalized to total protein level (stain-free membrane). [%] of protein reduction is calculated in comparison to the cells treated with DMSO, which stand for 0%.

CRBN = target: T2, CRBN (Homo sapiens, UniProt Q96SW2); experiment: NanoBRET In-cell CRBN Target Engagement Assay (live and lytic mode), NanoLuc CRBN HEK293 cells
T2 construct: host or cells: HEK293 (NanoLuc CRBN HEK293 cells)
Procedure: Commercially available, NanoBRET In-cell CRBN Target Engagement Assay (NanoBRET CRBN TE Assay), which uses NanoLuc CRBN HEK293 cells and NanoBRET In-cell CRBN Tracer was used (N2910, N2912, PROMEGA) to determine the cell membrane permeability of prodrugs of MCL-1 degraders.
The assay was run in 96-well plate format (cat. 3600, Corning). NanoLuc CRBN HEK293 cells were treated with CRBN Tracer and compounds. Briefly, prepared was cell suspension (0.17×10^6cells/ml) in Opti-MEM without phenol red (Life Technologies). The cells were treated with CRBN Tracer (20× concentrated, 5 μl/well. For the live mode: 0.8 μM and for the lytic: 0.17 μM final concentration) or DMSO vehicle control (20× concentrated, 5 μl/well). Such prepared cells were seeded into the wells of 96-well plate on top of compounds (100× concentrated, 1 μl/well; 11-point 2-fold dilution) pre-plated on them with the help of Echo 555 acoustic dispenser (Labcyte). For the lytic mode assay, Digitonin (0.05 mg/ml, 10× concentrated, 10 μl/well) was added additionally. In the live mode assay, the plate was incubated at 37° C., 5% CO2 for 2 hours, and then at room temperature for 15 minutes to cool down. In the lytic mode assay, there was no incubation. The 3×Complete NanoBRET reagent (50 μl/well) was prepared according to the manufacturer's recommendations, appropriately for live and lytic mode. The plate was incubated for 2 minutes at room temperature and the luminescence and fluorescence readings followed using CLARIOstar Multimode Plate Reader (donor emission RLU—450 nm; acceptor emission RFU—610 nm). RBA value is an indicator of cell membrane permeability (the lower, the better) is calculated from absolute pIC50 (the negative log of the absolute IC50 value when converted to molar) of the live mode assay (pIC50 Live) and the lytic mode assay (pIC50 Lytic).

[2] = 1 nM, + Q-VD-Oph (pan-caspase inhibitor)
[3] = 10 nM, + Q-VD-Oph (pan-caspase inhibitor)
[4] = 100 nM, + Q-VD-Oph (pan-caspase inhibitor)
[5] = live mode, intact cells, 2 hours at 37° C., read-out: pIC50 (live) (converted)
[6] = lytic mode, digitonin-lysed cells, no incubation, read-out: pIC50 (lytic) (converted)

T1 sequence (Q07820 whole entry): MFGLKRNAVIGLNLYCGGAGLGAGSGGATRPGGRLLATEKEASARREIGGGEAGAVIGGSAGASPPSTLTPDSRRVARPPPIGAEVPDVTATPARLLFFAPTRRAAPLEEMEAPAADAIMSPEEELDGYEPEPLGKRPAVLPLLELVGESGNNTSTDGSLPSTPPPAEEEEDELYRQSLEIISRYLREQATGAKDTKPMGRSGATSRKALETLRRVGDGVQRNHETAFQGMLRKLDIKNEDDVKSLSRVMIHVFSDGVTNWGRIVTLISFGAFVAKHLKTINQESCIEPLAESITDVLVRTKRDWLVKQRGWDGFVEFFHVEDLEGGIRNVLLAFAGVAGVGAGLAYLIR
T2 sequence (Q96SW2 whole entry): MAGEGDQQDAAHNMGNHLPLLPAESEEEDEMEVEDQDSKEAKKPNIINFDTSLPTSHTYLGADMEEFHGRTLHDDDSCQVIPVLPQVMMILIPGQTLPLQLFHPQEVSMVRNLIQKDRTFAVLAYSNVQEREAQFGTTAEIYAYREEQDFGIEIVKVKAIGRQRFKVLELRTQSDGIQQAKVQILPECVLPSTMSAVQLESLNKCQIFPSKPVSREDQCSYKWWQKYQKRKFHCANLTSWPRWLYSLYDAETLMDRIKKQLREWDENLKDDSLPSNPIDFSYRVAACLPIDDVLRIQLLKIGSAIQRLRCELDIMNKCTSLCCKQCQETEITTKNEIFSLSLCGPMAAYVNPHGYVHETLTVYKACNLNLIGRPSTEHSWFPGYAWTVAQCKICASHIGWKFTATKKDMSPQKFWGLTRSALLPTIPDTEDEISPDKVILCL

Row | Structure (SMILES) | CC50 (MV4-11 cells) [nM] | CC50 at 24 h [1] [nM] | MCL-1 protein abundance (MCL-1 protein; [2]) | MCL-1 protein abundance (MCL-1 protein; [3]) | MCL-1 protein abundance (MCL-1 protein; [4]) | MCL-1 protein degradation (Western blot, in words) (MCL-1 protein; in the presence of apoptosis inhibitor) | IC50 (CRBN; [5]) [nM] | IC50 (CRBN; [6]) [nM] | MCL-1 protein abundance (MCL-1 protein; 1 nM, without Q-VD-Oph) | MCL-1 protein abundance (MCL-1 protein; 10 nM, without Q-VD-Oph) | MCL-1 protein abundance (MCL-1 protein; 100 nM, without Q-VD-Oph) | MCL-1 protein degradation (Western blot, in words) (MCL-1 protein; apoptosis not blocked)
1 | CC(=O)OCOC(=O)c1c(CCCOc2cccc3cc(F)ccc23)c2ccc(Cl)c(-c3c(C)nn(C)c3C)c2n1CCN1CCN(C(=O)COc2cccc3c2CN(C2CCC(=O)NC2=O)C3=O)CC1 (stereo not drawn) [Compound 41, Acetoxymethyl 6-chloro-1-(2-(4-(2-((2-(2,6-dioxopiperidin-3-yl)-1-oxoisoindolin-4-yl)oxy)acetyl)piperazin-1-yl)ethyl)-3-(3-((6-fluoronaphthalen-1-yl)oxy)propyl)-7-(1,3,5-trimethyl-1H-pyrazol-4-yl)-1H-indole-2-carboxylate] | < 1 | > 10000 | B (Amount of MCL-1 protein >25% and ≤50% calculated as % of DMSO control) | A (Amount of MCL-1 protein ≤25% calculated as % of DMSO control) | A (Amount of MCL-1 protein ≤25% calculated as % of DMSO control) | MCL-1 protein degradation | 7.94 | 501 | – | – | – | –
2 | Cc1nn(C)c(C)c1-c1c(Cl)ccc2c(CCCOc3cccc4cc(F)ccc34)c(C(=O)OCOC(=O)C(C)(C)C)n(CCN3CCN(C(=O)COc4cccc5c4CN(C4CCC(=O)NC4=O)C5=O)CC3)c12 (stereo not drawn) [Compound 69, (6-Chloro-1-{2-[4-(2-{[2-(2,6-dioxopiperidin-3-yl)-1-oxo-2,3-dihydro-1H-isoindol-4-yl]oxy}acetyl)piperazin-1-yl]ethyl}-3-{3-[(6-fluoronaphthalen-1-yl)oxy]propyl}-7-(1,3,5-trimethyl-1H-pyrazol-4-yl)-1H-indole-2-carbonyloxy)methyl 2,2-dimethylpropanoate] | < 10 | > 31600 | C (Amount of MCL-1 protein >50% and <75% calculated as % of DMSO control) | B (Amount of MCL-1 protein >25% and ≤50% calculated as % of DMSO control) | B (Amount of MCL-1 protein >25% and ≤50% calculated as % of DMSO control) | – | 39.8 | 6310 | C (Amount of MCL-1 protein >50% and <75% calculated as % of DMSO control) | B (Amount of MCL-1 protein >25% and ≤50% calculated as % of DMSO control) | A (Amount of MCL-1 protein ≤25% calculated as % of DMSO control) | MCL-1 protein degradation
3 | Cc1nn(C)c(C)c1-c1c(Cl)ccc2c(CCCOc3cccc4cc(F)ccc34)c(C(=O)OCOC(=O)C(C)(C)C)n(CCN3CCN(C(=O)COc4ccc5c(c4)n(C)c(=O)n5C4CCC(=O)NC4=O)CC3)c12 (stereo not drawn) [Compound 74, (Pivaloyloxy)methyl 6-chloro-1-(2-(4-(2-((1-(2,6-dioxopiperidin-3-yl)-3-methyl-2-oxo-2,3-dihydro-1H-benzo[d]imidazol-5-yl)oxy)acetyl)piperazin-1-yl)ethyl)-3-(3-((6-fluoronaphthalen-1-yl)oxy)propyl)-7-(1,3,5-trimethyl-1H-pyrazol-4-yl)-1H-indole-2-carboxylate] | < 3.16 | > 1000 | – | – | – | – | 12.6 | 316 | – | – | – | –
4 | CCOCCOCCOC(=O)OC(C)OC(=O)c1c(CCCOc2cccc3cc(F)ccc23)c2ccc(Cl)c(-c3c(C)nn(C)c3C)c2n1CCN1CCN(C(=O)COc2cccc3c2CN(C2CCC(=O)NC2=O)C3=O)CC1 (stereo not drawn) [Compound 101, 4-Oxo-3,5,8,11-tetraoxatridecan-2-yl 6-chloro-1-(2-(4-(2-((2-(2,6-dioxopiperidin-3-yl)-1-oxoisoindolin-4-yl)oxy)acetyl)piperazin-1-yl)ethyl)-3-(3-((6-fluoronaphthalen-1-yl)oxy)propyl)-7-(1,3,5-trimethyl-1H-pyrazol-4-yl)-1H-indole-2-carboxylate] | < 31.6 | > 31600 | – | – | – | – | 63.1 | 794 | – | – | – | –
